Measured values as given in patent US20250229272A1, “Headspace Eliminating Microtiter Plate Lid” (Agilent Technologies, Inc., priority 2022, published 2025).

System: mitochondrial network
Assay: MitoTracker imaging of the mitochondrial network in cells incubated with compounds (Cytation 5)
Format: cell-based
Conditions: cells loaded with MitoTracker and hoechst; imaged while incubating with compounds; compared to the control; FIG. 15
Protocol: Cells were loaded with MitoTracker and hoechst as per manufactures instructions. Cells were washed with media then the media was replaced with media containing MitoXpress Xtra. Imaging was carried out as the plate was incubating with compounds using a Cytation 5 with a RFP LED/Filter set. Then, the lid of the present disclosure was placed onto the base of the plate assembly and MitoXpress Assay was run as normal.
The effects in structure are then reflected in the rates of oxygen consumption showing a direct correlation between structure and function. Different compounds lead to different effects. Some promote fusion, some inhibit fusion, some fission some limit fission. The novel insight with this method is to correlate changes in structure of the mitochondria to functional changes in respiration as shown in FIG. 16 in the same well for the first time.

Row | Molecule | effects of compounds on the mitochondrial network
1 | CC[C@H]1/C=C/C=C/C[C@@H](C)[C@H](O)[C@@](C)(O)C(=O)[C@@H](C)[C@H](O)[C@@H](C)C(=O)[C@@H](C)[C@H](O)[C@@H](C)/C=C/C(=O)O[C@@H]2[C@H](C)[C@H](CC1)O[C@]1(CC[C@H](C)[C@H](C[C@@H](C)O)O1)[C@H]2C [Oligomycin] | cause the network to condense, and divide
2 | C=C(C)[C@H]1Cc2c(ccc3c2O[C@@H]2COc4cc(OC)c(OC)cc4[C@@H]2C3=O)O1 [Rotenone] | cause the network to condense, and divide
3 | Antimycin | cause the network to condense, and divide
